Measured values from paper PMC7699256, “In Silico Analysis and In Vitro Characterization of the Bioactive Profile of Three Novel Peptides Identified from 19 kDa α-Zein Sequences of Maize” (Molecules, 2020).
Like-named read-outs stand apart in the source and are kept apart here. No end group written: not given here.

Biological target: T1, angiotensin-converting enzyme (ACE) (Homo sapiens, UniProt P12821)
T1 construct: purchased Sigma-Aldrich CS0002
Assay: ACE inhibition assay (ACE Activity Assay kit, fluorogenic substrate)
Assay type: biochemical
Description: ACE inhibitory activity was evaluated using the ACE Activity Assay test (Sigma-Aldrich CS0002, Saint Louis, MI, USA). This assay is based on the hydrolysis of angiotensin I by ACE to yield active angiotensin II. This test uses a synthetic fluorogenic peptide as the substrate, and the resulting fluorescence is proportional to ACE activity. Briefly, all reagents were diluted in the assay buffer, according to the manufacturer’s instructions. A total of 10 µL of peptide sample and positive control (captopril PHR1307, Sigma-Aldrich, Saint Louis, MI, USA), diluted in assay buffer at five different concentrations, and negative control (assay buffer) were pipetted into the wells of a 96-well black opaque plate. Then, 40 µL of ACE, provided in the kit, was added to sample and control wells. Sample blanks consisted of 50 µL of assay buffer. A standard curve was prepared in 100 µL assay buffer per well ranging from 0 to 8 nmol for calculating enzymatic activity. Subsequently, 50 µL of fluorogenic substrate warmed to 37 °C was added to experimental, control and blank sample wells. The reaction was carried out at 37 °C and fluorescence was read every minute for 5 min in a microplate reader (Biotek Synergy HTX, Winooski, VT, USA). The absorbance of excitation and emission were set at 320 nm and 405 nm, respectively. All determinations were done in duplicate. Linear regressions were determined to calculate the enzymatic activity for each sample dose.
One unit is defined as the amount of enzyme that releases one nmol of fluorescent substrate in 1 min at 37 °C. The results were expressed as milliunits of enzyme (mU). Finally, the IC50 of each peptide sample and captopril was determined using regression analysis of the corresponding dose–response curves. […] This value was expressed as µM.

[1] = fluorogenic substrate, 37 °C, fluorescence (ex 320/em 405 nm) every minute for 5 min, five concentrations, value ± SD, n = 2, read-out: IC50 for ACE inhibition
[2] = own IC50 values converted to mg/mL for comparison with the literature, read-out: IC50 for ACE inhibition expressed in mg/mL (converted)

T1 sequence (P12821 30-1306, species assumed): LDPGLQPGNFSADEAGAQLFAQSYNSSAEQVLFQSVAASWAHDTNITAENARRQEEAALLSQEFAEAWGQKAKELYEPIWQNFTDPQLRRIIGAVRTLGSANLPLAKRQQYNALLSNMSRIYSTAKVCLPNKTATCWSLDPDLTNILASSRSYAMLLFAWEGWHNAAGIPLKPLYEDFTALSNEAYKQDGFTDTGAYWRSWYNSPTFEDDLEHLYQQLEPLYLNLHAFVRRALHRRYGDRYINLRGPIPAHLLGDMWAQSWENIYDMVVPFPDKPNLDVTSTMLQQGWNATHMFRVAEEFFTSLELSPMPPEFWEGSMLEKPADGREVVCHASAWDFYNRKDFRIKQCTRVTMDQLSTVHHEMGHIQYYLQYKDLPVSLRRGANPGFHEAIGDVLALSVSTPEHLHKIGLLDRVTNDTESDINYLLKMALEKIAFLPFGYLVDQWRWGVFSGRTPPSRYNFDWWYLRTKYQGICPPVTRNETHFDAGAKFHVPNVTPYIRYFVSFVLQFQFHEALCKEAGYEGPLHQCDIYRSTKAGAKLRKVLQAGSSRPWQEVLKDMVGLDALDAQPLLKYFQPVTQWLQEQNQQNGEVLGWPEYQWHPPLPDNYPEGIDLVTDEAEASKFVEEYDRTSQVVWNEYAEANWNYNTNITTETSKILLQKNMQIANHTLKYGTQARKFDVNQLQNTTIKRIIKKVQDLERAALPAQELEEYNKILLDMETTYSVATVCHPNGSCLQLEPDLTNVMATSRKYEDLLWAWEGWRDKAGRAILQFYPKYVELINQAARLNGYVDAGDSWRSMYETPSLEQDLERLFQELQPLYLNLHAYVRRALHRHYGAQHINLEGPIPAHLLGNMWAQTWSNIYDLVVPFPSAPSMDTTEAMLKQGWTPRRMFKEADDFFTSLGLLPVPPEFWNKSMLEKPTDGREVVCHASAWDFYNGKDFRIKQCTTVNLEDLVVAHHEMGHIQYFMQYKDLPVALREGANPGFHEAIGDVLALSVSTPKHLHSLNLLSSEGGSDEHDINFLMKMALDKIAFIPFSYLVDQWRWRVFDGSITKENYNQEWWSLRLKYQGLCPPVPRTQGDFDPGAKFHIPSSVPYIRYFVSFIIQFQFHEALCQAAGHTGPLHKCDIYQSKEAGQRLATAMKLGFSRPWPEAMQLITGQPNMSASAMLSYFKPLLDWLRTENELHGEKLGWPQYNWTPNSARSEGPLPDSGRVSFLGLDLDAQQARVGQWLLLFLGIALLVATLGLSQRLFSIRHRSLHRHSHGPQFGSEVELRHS

IC50 [1] [µM] | IC50 [2] [µM] | Substance
174 ± 49.6 | 174 | QLADVSPAAFLTQQQLLPFYLHAM-NH2 [19ZP2]
14.19 ± 0.12 | 14.4 | FNQLAALNSAAYLQQQQLLPFSQLA-NH2 [19ZP1]
202 ± 0.63 | 202 | AYLQAQQLLPFNQLVRSPAA-NH2 [19ZP3]
